How the values were obtained:
[1] = system: HeLa cells; test: Cell proliferation measurement (CellTiter-Glo, 72 h); assay type: cell-based; conditions: Homo sapiens, anti-proliferation
Procedure: (§1) The antiproliferative activity of the compounds of the general formula (I) was examined in vitro in human cancer cells. […] After 24 h, cells on one plate (0 h plate) were treated with 30 μl/cavity of CTG solution (Promega Cell Titer Glo (catalogue #G755B and G756B)) and incubated at room temperature for 10 min, and luminescence was measured by means of a VICTOR V (Perkin Elmer), in order to determine cell viability on commencement of treatment. The cells on the test plate were treated with the compounds of the general formula (I) as and incubated at 37° C. for 72 h. The compounds were added to the cells by means of an HP D300 digital dispenser in a 10-step 2,5-fold dilution series generally starting at a maximum final drug concentration of 100 nM, or 30 μM in the case of COV318. As control, the cells were treated with vehicle (DMSO at 0.3% final concentration). After 72 h, the cells were treated with 30 μl/cavity of CTG solution (Promega Cell Titer Glo (catalogue #G755B and G756B)) and incubated at room temperature for 10 min, and luminescence was measured by means of a VICTOR V (Perkin Elmer), in order to determine cell viability at the end of treatment. The percentage effect on cell growth and the IC50 derived therefrom were determined for each test substance using the values from the 0 h plate (=maximum inhibition) and the DMSO control (=minimum inhibition). The IC50 values were calculated using a 4-parameter fit.

[2] = system: SK-MEL-3 cells; test: as above; assay type: cell-based; conditions: Homo sapiens, SK-MEL3; anti-proliferation, SK-MEL-3, 72 h
Procedure: as §1

[3] = biological target: human full length PDE3A (Homo sapiens (Human), UniProt Q14432); test: PDE3A enzyme inhibition (3H-cAMP Scintillation Proximity Assay); assay type: biochemical; conditions: Sf9 cell extract, 60 min room temperature
Sequence of human full length PDE3A (Q14432 whole entry): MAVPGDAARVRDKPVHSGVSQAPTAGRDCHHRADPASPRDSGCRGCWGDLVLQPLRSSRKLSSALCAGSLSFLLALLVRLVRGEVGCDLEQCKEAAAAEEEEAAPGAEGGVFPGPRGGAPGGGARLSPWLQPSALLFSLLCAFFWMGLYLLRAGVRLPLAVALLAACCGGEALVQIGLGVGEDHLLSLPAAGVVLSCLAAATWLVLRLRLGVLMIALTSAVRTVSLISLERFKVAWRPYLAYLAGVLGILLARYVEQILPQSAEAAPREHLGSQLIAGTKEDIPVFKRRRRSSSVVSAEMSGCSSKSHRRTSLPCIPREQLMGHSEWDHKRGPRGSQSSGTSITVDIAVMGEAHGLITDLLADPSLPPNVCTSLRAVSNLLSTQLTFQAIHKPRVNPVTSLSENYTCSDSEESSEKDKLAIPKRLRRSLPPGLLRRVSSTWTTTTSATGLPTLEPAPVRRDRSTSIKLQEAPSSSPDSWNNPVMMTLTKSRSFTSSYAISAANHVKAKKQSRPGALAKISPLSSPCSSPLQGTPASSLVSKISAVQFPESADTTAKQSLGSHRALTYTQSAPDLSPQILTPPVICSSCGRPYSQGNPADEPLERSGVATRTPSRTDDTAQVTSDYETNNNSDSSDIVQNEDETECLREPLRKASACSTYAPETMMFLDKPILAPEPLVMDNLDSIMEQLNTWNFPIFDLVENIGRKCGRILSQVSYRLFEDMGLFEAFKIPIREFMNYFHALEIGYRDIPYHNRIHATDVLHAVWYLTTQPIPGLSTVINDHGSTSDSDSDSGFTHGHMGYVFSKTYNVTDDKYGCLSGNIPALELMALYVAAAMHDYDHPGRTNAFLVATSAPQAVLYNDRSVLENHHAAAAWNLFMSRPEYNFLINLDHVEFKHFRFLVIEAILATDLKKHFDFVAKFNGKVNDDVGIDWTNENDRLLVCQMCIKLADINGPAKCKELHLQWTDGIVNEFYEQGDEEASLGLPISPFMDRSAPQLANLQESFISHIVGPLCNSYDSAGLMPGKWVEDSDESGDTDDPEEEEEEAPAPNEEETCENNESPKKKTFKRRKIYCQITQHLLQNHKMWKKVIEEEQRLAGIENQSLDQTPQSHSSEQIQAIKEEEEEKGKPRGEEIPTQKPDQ
Procedure: (§2) The commercially available 3H-cAMP Scintillation Proximity Assay (SPA, Perkin Elmer) system was used for enzyme inhibition studies. For the determination of the in vitro effect of example compounds on the PDE3A reactions 2 μl of the respective example compound solution in DMSO (serial dilutions) were placed in wells of microtiter plates (Isoplate-96/200W; Perkin Elmer). 50 μl of a dilution of PDE3A cell extract from Sf9 cells overexpressing human full length PDE3A (SB Drug Discovery, UK) in buffer A (50 mM Tris/HCl pH 7.5, 8.3 mM MgCl2, 1.7 mM EDTA, 0.2% BSA) was added. The dilution of the PDE3A cell extract was chosen such that the reaction kinetics was linear and less than 70% of the substrate was consumed (typical dilution 1:5000). The reaction was started by addition of 50 μl (0.025 μCi) of 1:2000 in buffer A w/o BSA diluted substrate [8-3H]adenosine 3′, 5′-cyclic phosphate (1 μCi/μl; Perkin Elmer). After incubation at room temperature for 60 min, the reaction was stopped by addition of 25 μl of a suspension containing 18 mg/ml yttrium scintillation proximity beads (Perkin Elmer) in water. The microtiter plates were sealed and measured in a Microbeta scintillation counter (PerkinElmer Wallac). IC50 values were determined from sigmoidal curves by plotting percentage PDE3A activity vs log compound concentration.

[4] = biological target: human full length PDE3B (Homo sapiens (Human), UniProt Q13370); test: PDE3B enzyme inhibition (3H-cAMP Scintillation Proximity Assay); assay type: biochemical; conditions: Sf9 cell extract, 60 min room temperature
Sequence of human full length PDE3B (Q13370 whole entry): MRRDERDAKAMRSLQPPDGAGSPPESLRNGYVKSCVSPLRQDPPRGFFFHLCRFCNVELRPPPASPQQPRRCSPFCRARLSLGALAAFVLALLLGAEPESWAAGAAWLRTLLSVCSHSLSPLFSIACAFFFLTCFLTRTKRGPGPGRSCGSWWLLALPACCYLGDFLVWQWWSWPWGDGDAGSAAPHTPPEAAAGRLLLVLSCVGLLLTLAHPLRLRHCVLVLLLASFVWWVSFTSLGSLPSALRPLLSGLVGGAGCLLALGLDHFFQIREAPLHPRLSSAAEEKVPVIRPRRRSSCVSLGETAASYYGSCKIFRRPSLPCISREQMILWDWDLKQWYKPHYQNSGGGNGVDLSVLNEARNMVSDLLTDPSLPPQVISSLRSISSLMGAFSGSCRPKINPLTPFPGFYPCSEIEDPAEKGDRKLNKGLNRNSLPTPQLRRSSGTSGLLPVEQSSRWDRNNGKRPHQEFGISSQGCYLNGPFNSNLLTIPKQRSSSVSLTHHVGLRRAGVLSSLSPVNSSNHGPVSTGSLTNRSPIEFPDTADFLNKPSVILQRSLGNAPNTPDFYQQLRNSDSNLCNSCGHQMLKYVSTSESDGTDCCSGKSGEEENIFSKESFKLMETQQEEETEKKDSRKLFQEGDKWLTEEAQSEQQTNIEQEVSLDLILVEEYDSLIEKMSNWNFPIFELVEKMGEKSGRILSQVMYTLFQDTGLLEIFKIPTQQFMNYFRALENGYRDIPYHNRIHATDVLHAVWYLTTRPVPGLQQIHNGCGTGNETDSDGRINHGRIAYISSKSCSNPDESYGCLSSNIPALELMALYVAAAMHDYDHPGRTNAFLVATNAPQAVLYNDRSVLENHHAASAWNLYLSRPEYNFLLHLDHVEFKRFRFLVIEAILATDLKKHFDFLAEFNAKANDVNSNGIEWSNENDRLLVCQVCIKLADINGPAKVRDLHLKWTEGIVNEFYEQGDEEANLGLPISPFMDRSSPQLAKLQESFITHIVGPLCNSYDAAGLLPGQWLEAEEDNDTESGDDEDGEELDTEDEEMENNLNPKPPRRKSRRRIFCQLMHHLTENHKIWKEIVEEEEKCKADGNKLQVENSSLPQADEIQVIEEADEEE
Procedure: as §2, with “PDE3B” for “PDE3A”, “1:6000).” for “1:5000).”

SMILES | IC50 [1] [nM] | IC50 [2] [nM] | IC50 [3] [nM] | IC50 [4] [nM]
C[C@@H]1NC(=O)NN=C1c1ccc(NC2CCCC2)c(C(F)(F)F)c1 [Example 4, (5S)-6-[4-(cyclopentylamino)-3-(trifluoromethyl)phenyl]-5-methyl-4,5-dihydro-1,2,4-triazin-3(2H)-one] | 0.1 | 0.4 | 2 | 1
C[C@@H]1NC(=O)NN=C1c1ccc(NCc2ccn[nH]2)c(C(F)(F)F)c1 [Example 2, (5S)-5-methyl-6-[4-{[(1H-pyrazol-5-yl)methyl]amino}-3-(trifluoromethyl)phenyl]-4,5-dihydro-1,2,4-triazin-3(2H)-one] | 0.7 | 0.3 | 5 | 6
C[C@@H]1NC(=O)NN=C1c1ccc(NCc2cnccn2)c(C(F)(F)F)c1 [Example 6, (5S)-5-methyl-6-[4-{[(pyrazin-2-yl)methyl]amino}-3-(trifluoromethyl)phenyl]-4,5-dihydro-1,2,4-triazin-3(2H)-one] | 0.3 | 0.7 | 4 | 5
C[C@@H]1NC(=O)NN=C1c1ccc(N2CC(C)(O)C2)c(C(F)(F)F)c1 [Example 3, (5S)-6-[4-(3-hydroxy-3-methylazetidin-1-yl)-3-(trifluoromethyl)phenyl]-5-methyl-4,5-dihydro-1,2,4-triazin-3(2H)-one] | 0.1 | 0.3 | 2 | 1
C[C@@H]1NC(=O)NN=C1c1ccc(NC[C@@H](O)C(F)(F)F)c(C(F)(F)F)c1 [Example 5, (5S)-5-methyl-6-[4-{[(2R)-3,3,3-trifluoro-2-hydroxypropyl]amino}-3-(trifluoromethyl)phenyl]-4,5-dihydro-1,2,4-triazin-3(2H)-one] | 0.2 | 0.6 | 4 | 5

From US20250170136A1, “1,2,4-TRIAZIN-3(2H)-ONE COMPOUNDS FOR THE TREATMENT OF HYPERPROLIFERATIVE DISEASES” (BAYER AKTIENGESELLSCHAFT, priority 2019, published 2025)
